From patent US7041665B2, “Benzoxazinone derivatives, their preparation and use as medicaments” (Laboratories del Dr. Esteve, S.A., priority 2002, dated 2006) come the findings set out here.

The Ki is a measure of affinity in units of concentration, obtained from inhibition or displacement. Read a high Ki as lower affinity. In general, melting point refers to the temperature, or range, at which the solid turns liquid.

Counter-ions that a name gives are not always drawn. A value given as a limit tells only on which side of the number the result lay.

Series [1] deals with T1, Neuropeptide Y5 (Rattus norvegicus, UniProt Q63634).
T1 construct: their brains are rapidly removed and the cortex is dissected; from tissue; host or cells: rat brain cortex membranes (male Wistar rats)
T1 sequence (Q63634 1-445): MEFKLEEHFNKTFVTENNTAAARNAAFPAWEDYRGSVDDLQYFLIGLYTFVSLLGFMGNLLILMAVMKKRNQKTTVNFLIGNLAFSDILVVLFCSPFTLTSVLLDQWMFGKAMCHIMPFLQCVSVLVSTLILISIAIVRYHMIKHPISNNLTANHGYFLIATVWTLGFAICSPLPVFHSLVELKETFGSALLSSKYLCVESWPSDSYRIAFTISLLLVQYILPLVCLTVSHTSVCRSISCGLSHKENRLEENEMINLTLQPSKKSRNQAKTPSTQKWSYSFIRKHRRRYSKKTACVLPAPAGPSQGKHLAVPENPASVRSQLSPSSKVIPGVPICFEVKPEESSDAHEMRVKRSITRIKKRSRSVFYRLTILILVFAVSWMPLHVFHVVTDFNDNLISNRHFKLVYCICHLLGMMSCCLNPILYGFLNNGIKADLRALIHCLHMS
The series is described as follows: Binding to Neuropeptide Y5, [125I]-PYY(3-36), BIBP 3226 sat., rat cortex membranes. Particulars: radioligand [125I]-PYY3-36, 1 μM BIBP 3226 to saturate Y1, 25° C., 120 minutes. The protocol:
Binding to Neuropeptide Y5
(§1) Male Wistar rats are sacrificed by decapitation, their brains are rapidly removed and the cortex is dissected. Homogenization is performed in cold conditions in the buffer: 120 mM NaCl, 4.7 mM KCl, 2.2 mM CaCl2, 1.2 mM KH2PO4, 1.2 mM MgSO4, 25 mM NaHCO3, 5.5 mM glucose, pH 7.4, by means of a Ultra-Turrax homogenizer for 15 seconds at 13,500 rpm. The ratio between fresh tissue weight and buffer volume is of twenty times. The membrane is centrifuged for 10 min at 48,000 g. The supernatant is discarded and the pellet is washed, resuspended and recentrifuged three more times. The final membrane resuspension is performed in the buffer: 120 mM NaCl, 4.7 mM KCl, 2.2 mM CaCl2, 1.2 mM KH2PO4, 1.2 mM MgSO4, 25 mM NaHCO3, 5.5 mM glucose, 0.1% BSA, 0.05% bacitracin, pH 7.4, at a ratio of 20 ml/g fresh tissue. […] Incubation volume: 500 μl. […] The filters are cold-washed three times with two milliliters of the same buffer used in homogenization. […] Non-specific binding is determined in the presence of 1 μM of pNPY (porcin Neuropeptide Y). The assays are performed in triplicate.

Series [2] deals with T2, Neuropeptide Y2 (Rattus norvegicus, UniProt Q9ERC0).
T2 construct: their brains are rapidly removed and the hypoccampus is dissected; from tissue; host or cells: rat hippocampus membranes (male Wistar rats)
T2 sequence (Q9ERC0 1-381): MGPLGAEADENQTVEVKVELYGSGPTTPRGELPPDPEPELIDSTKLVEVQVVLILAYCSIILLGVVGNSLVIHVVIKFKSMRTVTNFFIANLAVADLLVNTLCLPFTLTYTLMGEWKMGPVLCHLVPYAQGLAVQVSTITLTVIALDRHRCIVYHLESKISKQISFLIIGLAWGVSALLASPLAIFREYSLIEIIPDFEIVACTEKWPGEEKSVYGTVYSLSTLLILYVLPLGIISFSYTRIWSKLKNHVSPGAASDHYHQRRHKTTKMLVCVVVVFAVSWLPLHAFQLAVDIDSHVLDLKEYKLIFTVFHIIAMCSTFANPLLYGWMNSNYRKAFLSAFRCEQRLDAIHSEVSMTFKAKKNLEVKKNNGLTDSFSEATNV
The series is described as follows: Binding to Neuropeptide Y2, [125I]-PYY(3-36), rat hypoccampus membranes. Particulars: radioligand [125I]-PYY3-36, 25° C., 150 minutes. How it is done: Binding to Neuropeptide Y2
as §1, with “the hypoccampus” for “the cortex”, “of ten” for “of twenty”, “recentrifuged two” for “recentrifuged three”, “times.” for “times. The final membrane resuspension is performed in the buffer: 120 mM NaCl, 4.7 mM KCl, 2.2 mM CaCl2, 1.2 mM KH2PO4, 1.2 mM MgSO4, 25 mM NaHCO3, 5.5 mM glucose, 0.1% BSA, 0.05% bacitracin, pH 7.4, at a ratio of 20 ml/g fresh tissue.”, “with three” for “with two”

In series [3] the test system is male Wistar rats. The experiment in a line: Nocturnal ingestion test. The series is classed as in vivo, rat. Particulars: intra-peritoneal, compared to control group. The protocol:
Measurement of the Intake in Animal Models
The animals employed were male Wistar rats (200–270 g) supplied by Harlan, S. A. The acclimatization period in our stable before being used in the experimental trials was at least 5 days. In this time the animals were stabled in groups of 5 in translucid cages, with water and food ad libitum. The animals were acclimatized to individual stabling at least 24 hours before conducting the experiment.
The test is carried out in the animal's cage in order to minimize the stress implied in a change of cage, which could affect the intake. Water and food are available at all times ad libitum. Immediately before turning out the lights in the room the animals are weighed and randomly assigned to a treatment group (vehicle or product under study). Immediately after the administration the rats are returned to their cages, where a known amount of food had been placed. The following morning the amount of food remaining in each cage was weighed, and the animals were again weighed.
References: Ants Kask et al., Journal of Pharmacology, 414 (2001) 215–224; Andrew V. Turnbull et al., Diabetes, Vol. 51, August 2002
Effect of Some Compounds of the Invention on Nocturnal Ingestion in Male Wistar Rats (Intra-Peritoneal Administration)

Regarding `O=C(CN1CCC(N2C(=O)OCc3ccccc32)CC1)Nc1ccc2c(c1)CCCC2=O` [Example 6, 1-{1-[N-(1-oxo-1,2,3,4-tetrahydronaphthalen-6-yl)aminocarbonylmethyl]-4-(piperidinyl)}-1,4-dihydro-2H-3,1-benzoxazin-2-one hydrochloride], the inhibition constant (Ki) in series [1] was 18.4 nM; in series [2], more than 1000 nM.
Compound `Cc1ccc2c(c1)COC(=O)N2C1CCN(CC(=O)Nc2ccc3c(c2)-c2ccccc2C3=O)CC1` (as salt: HCl) [Example 20, 1-{1-[N-(9-oxo-9H-fluoren-3-yl)aminocarbonylmethyl]-4-(piperidinyl)}-6-methyl-1,4-dihydro-2 H-3,1-benzoxazin-2-one hydrochloride] yielded a melting point of 250 to 252 °C.
The compound `O=C(CN1CCC(N2C(=O)OCc3ccccc32)CC1)Nc1ccc2c(c1)-c1ccccc1C2=O` [Example 3, 1-{1-[N-(9-oxo-9H-fluoren-3-yl)aminocarbonylmethyl]-4-(piperidinyl)}-1,4-dihydro-2H-3,1-benzoxazin-2-one hydrochloride] had a Ki in series [1] of 6.4 nM. That is a single-digit nanomolar value.
Regarding `O=C(CN1CCC(N2C(=O)OCc3ccccc32)CC1)Nc1ccc2c(c1)CCCC2=O` (as salt: HCl) [Example 6, 1-{1-[N-(1-oxo-1,2,3,4-tetrahydronaphthalen-6-yl)aminocarbonylmethyl]-4-(piperidinyl)}-1,4-dihydro-2H-3,1-benzoxazin-2-one hydrochloride], the melting point lay within 260 to 264 °C.
As to `CCn1c2ccccc2c2cc(NC(=O)CN3CCC(N4C(=O)OCc5ccccc54)CC3)ccc21` [Example 18, 1-{1-[N-(9-ethyl-9H-carbazol-3-yl)aminocarbonylmethyl]-4-(piperidinyl)}-1,4-dihydro-2H-3,1-benzoxazin-2-one hydrochloride], in series [3] (40 mg/kg), the “Effect on nocturnal ingestion: body weight of the animals” value (shortened to “Effect … of the animals”) is given as “reduces body” and the “Effect on nocturnal ingestion: food intake” value (“Effect … food intake” for short) was “Reduces food intake”.
Take “1-{1-[N-(9-oxo-9H-fluoren-3-yl)aminocarbonylmethyl]-4-(piperidinyl)}-8-methyl-1,4-dihydro-2H-3,1-benzoxazin-2-one hydrochloride [Example 35]”: in series [3] (20 mg/kg), the “Effect … of the animals” value was “reduces body” and the “Effect … food intake” value is on record as “Reduces food intake”.
With `O=C(CN1CCC(N2C(=O)OCc3ccccc32)CC1)Nc1ccc2c(c1)-c1ccccc1C2=O` (as salt: HCl) [Example 3, 1-{1-[N-(9-oxo-9H-fluoren-3-yl)aminocarbonylmethyl]-4-(piperidinyl)}-1,4-dihydro-2H-3,1-benzoxazin-2-one hydrochloride], the melting point was more than 275 °C.
As for `Cc1ccc2c(c1)COC(=O)N2C1CCN(CC(=O)Nc2ccc3c(c2)-c2ccccc2C3=O)CC1` [Example 20, 1-{1-[N-(9-oxo-9H-fluoren-3-yl)aminocarbonylmethyl]-4-(piperidinyl)}-6-methyl-1,4-dihydro-2 H-3,1-benzoxazin-2-one hydrochloride], the inhibition constant (Ki) in series [1] came to 0.87 nM. Moreover, in series [3] (40 mg/kg), the “Effect … of the animals” value was “reduces body” and the “Effect … food intake” value is “Reduces food intake”.
